Assay results as given in ChEMBL document CHEMBL5715260, “Selectivity Literature for EUbOPEN Chemogenomic Library” (2024).
Values belong to the compound of their own block, whether it stands above or below them.

Assays:
[1] = molecular target: T1, Hepatocyte nuclear factor 4-alpha (Homo sapiens) (UniProt P41235); experiment: Selectivity interaction (Reporter gene assay) EUB0000583a HNF4A; parameters: recommended concentration 1 uM
T1 sequence (whole entry): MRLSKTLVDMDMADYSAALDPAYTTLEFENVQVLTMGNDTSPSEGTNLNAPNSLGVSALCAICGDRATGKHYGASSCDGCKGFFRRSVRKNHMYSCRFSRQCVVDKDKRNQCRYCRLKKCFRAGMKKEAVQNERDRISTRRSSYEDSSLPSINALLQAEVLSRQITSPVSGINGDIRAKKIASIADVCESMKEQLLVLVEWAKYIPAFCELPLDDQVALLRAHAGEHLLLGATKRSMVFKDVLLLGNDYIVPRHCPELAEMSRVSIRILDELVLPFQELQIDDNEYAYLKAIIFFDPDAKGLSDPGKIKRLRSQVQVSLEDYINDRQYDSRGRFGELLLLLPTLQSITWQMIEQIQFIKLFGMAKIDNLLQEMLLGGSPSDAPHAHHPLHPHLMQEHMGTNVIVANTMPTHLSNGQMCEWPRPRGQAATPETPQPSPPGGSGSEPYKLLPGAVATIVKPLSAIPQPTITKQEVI

[2] = molecular target: T2, Nuclear receptor subfamily 2 group C member 1 (Homo sapiens) (UniProt P13056); experiment: Selectivity interaction (Reporter gene assay) EUB0000583a NR2C1; parameters: recommended concentration 1 uM
T2 sequence (whole entry): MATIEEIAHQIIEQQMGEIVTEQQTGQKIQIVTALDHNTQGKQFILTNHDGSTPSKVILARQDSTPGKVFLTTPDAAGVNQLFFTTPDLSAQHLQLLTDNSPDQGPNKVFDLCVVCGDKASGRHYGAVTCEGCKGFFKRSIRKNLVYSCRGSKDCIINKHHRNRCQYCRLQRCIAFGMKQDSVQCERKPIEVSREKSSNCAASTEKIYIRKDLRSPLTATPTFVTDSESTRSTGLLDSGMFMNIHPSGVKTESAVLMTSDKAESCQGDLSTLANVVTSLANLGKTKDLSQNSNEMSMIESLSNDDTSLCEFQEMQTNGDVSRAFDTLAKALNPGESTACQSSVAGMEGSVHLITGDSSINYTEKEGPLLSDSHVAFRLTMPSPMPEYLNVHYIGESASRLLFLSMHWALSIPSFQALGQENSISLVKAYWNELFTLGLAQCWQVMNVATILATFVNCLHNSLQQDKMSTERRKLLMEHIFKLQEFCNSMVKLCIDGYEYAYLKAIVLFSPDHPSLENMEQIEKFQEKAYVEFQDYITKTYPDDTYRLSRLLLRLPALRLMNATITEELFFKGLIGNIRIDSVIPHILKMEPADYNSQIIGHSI

[3] = molecular target: Nuclear receptor subfamily 2 group E member 1 (Homo sapiens) (UniProt Q9Y466); experiment: Selectivity interaction (Reporter gene assay) EUB0000583a NR2E1; parameters: recommended concentration 1 uM
[4] = molecular target: Nuclear receptor subfamily 4immunitygroup A member 1 (Homo sapiens) (UniProt P22736); experiment: Selectivity interaction (Reporter gene assay) EUB0000583a NR4A1; parameters: recommended concentration 1 uM
[5] = molecular target: Steroidogenic factor 1 (Homo sapiens) (UniProt Q13285); experiment: Selectivity interaction (Reporter gene assay) EUB0000583a NR5A1; parameters: recommended concentration 1 uM
[6] = molecular target: T3, Alpha trans-inducing protein (Human alphaherpesvirus 1) (UniProt A0A5J6DW59); experiment: Selectivity interaction (Reporter gene assay) EUB0000583a UL48; parameters: recommended concentration 1 uM
[7] = molecular target: T4, Retinoic acid receptor RXR-alpha (Homo sapiens) (UniProt P19793); experiment: Selectivity interaction (Reporter gene assay) EUB0000583a RXRA; parameters: recommended concentration 1 uM; details: reference bexarotene 1 uM, Selectivity number of off-targets 0.0, Selectivity number of targets 1.0, Source Knowledge inhouse
T4 sequence (whole entry): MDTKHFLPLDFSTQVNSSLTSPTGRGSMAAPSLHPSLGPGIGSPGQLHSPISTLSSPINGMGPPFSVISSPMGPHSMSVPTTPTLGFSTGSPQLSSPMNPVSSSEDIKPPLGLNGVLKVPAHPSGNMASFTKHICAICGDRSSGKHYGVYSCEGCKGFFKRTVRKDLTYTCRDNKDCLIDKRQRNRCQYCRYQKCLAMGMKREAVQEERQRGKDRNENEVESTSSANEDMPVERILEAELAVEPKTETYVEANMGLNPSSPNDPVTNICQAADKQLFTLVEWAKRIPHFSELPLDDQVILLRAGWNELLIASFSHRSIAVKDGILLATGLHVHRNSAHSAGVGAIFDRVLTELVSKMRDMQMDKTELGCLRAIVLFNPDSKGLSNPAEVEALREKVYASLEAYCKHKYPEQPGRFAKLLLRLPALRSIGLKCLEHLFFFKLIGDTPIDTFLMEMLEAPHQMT

[8] = molecular target: T1, Hepatocyte nuclear factor 4-alpha (Homo sapiens); experiment: Selectivity interaction (Reporter gene assay) EUB0000576a HNF4A; parameters: recommended concentration 1 uM
[9] = molecular target: T2, Nuclear receptor subfamily 2 group C member 1 (Homo sapiens); experiment: Selectivity interaction (Reporter gene assay) EUB0000576a NR2C1; parameters: recommended concentration 1 uM
[10] = molecular target: Nuclear receptor subfamily 2 group E member 1 (Homo sapiens) (UniProt Q9Y466); experiment: Selectivity interaction (Reporter gene assay) EUB0000576a NR2E1; parameters: recommended concentration 1 uM
[11] = molecular target: Nuclear receptor subfamily 4immunitygroup A member 1 (Homo sapiens) (UniProt P22736); experiment: Selectivity interaction (Reporter gene assay) EUB0000576a NR4A1; parameters: recommended concentration 1 uM
[12] = molecular target: Steroidogenic factor 1 (Homo sapiens) (UniProt Q13285); experiment: Selectivity interaction (Reporter gene assay) EUB0000576a NR5A1; parameters: recommended concentration 1 uM
[13] = molecular target: T3, Alpha trans-inducing protein (Human alphaherpesvirus 1); experiment: Selectivity interaction (Reporter gene assay) EUB0000576a UL48; parameters: recommended concentration 1 uM
[14] = molecular target: T4, Retinoic acid receptor RXR-alpha (Homo sapiens); experiment: Selectivity interaction (Reporter gene assay) EUB0000576a RXRA; parameters: recommended concentration 1 uM; details: reference bexarotene 1 uM, Selectivity number of off-targets 0.0, Selectivity number of targets 1.0, Source Knowledge inhouse
[15] = molecular target: T1, Hepatocyte nuclear factor 4-alpha (Homo sapiens); experiment: Selectivity interaction (Reporter gene assay) EUB0000573a HNF4A; parameters: recommended concentration 1 uM
[16] = molecular target: T2, Nuclear receptor subfamily 2 group C member 1 (Homo sapiens); experiment: Selectivity interaction (Reporter gene assay) EUB0000573a NR2C1; parameters: recommended concentration 1 uM
[17] = molecular target: Nuclear receptor subfamily 2 group E member 1 (Homo sapiens) (UniProt Q9Y466); experiment: Selectivity interaction (Reporter gene assay) EUB0000573a NR2E1; parameters: recommended concentration 1 uM
[18] = molecular target: Nuclear receptor subfamily 4immunitygroup A member 1 (Homo sapiens) (UniProt P22736); experiment: Selectivity interaction (Reporter gene assay) EUB0000573a NR4A1; parameters: recommended concentration 1 uM
[19] = molecular target: Steroidogenic factor 1 (Homo sapiens) (UniProt Q13285); experiment: Selectivity interaction (Reporter gene assay) EUB0000573a NR5A1; parameters: recommended concentration 1 uM
[20] = molecular target: T3, Alpha trans-inducing protein (Human alphaherpesvirus 1); experiment: Selectivity interaction (Reporter gene assay) EUB0000573a UL48; parameters: recommended concentration 1 uM
[21] = molecular target: T4, Retinoic acid receptor RXR-alpha (Homo sapiens); experiment: Selectivity interaction (Reporter gene assay) EUB0000573a RXRA; parameters: recommended concentration 1 uM; details: reference bexarotene 1 uM, Selectivity number of off-targets 0.0, Selectivity number of targets 1.0, Source Knowledge inhouse
[22] = molecular target: T1, Hepatocyte nuclear factor 4-alpha (Homo sapiens); experiment: Selectivity interaction (Reporter gene assay) EUB0000574a HNF4A; parameters: recommended concentration 10 uM
[23] = molecular target: T2, Nuclear receptor subfamily 2 group C member 1 (Homo sapiens); experiment: Selectivity interaction (Reporter gene assay) EUB0000574a NR2C1; parameters: recommended concentration 10 uM
[24] = molecular target: Nuclear receptor subfamily 2 group E member 1 (Homo sapiens) (UniProt Q9Y466); experiment: Selectivity interaction (Reporter gene assay) EUB0000574a NR2E1; parameters: recommended concentration 10 uM
[25] = molecular target: Nuclear receptor subfamily 4immunitygroup A member 1 (Homo sapiens) (UniProt P22736); experiment: Selectivity interaction (Reporter gene assay) EUB0000574a NR4A1; parameters: recommended concentration 10 uM
[26] = molecular target: Steroidogenic factor 1 (Homo sapiens) (UniProt Q13285); experiment: Selectivity interaction (Reporter gene assay) EUB0000574a NR5A1; parameters: recommended concentration 10 uM
[27] = molecular target: T3, Alpha trans-inducing protein (Human alphaherpesvirus 1); experiment: Selectivity interaction (Reporter gene assay) EUB0000574a UL48; parameters: recommended concentration 10 uM
[28] = molecular target: T4, Retinoic acid receptor RXR-alpha (Homo sapiens); experiment: Selectivity interaction (Reporter gene assay) EUB0000574a RXRA; parameters: recommended concentration 10 uM; details: reference bexarotene 1 uM, Selectivity number of off-targets 0.0, Selectivity number of targets 1.0, Source Knowledge inhouse
[29] = molecular target: T1, Hepatocyte nuclear factor 4-alpha (Homo sapiens); experiment: Selectivity interaction (Reporter gene assay) EUB0000585a HNF4A; parameters: recommended concentration 1 uM
[30] = molecular target: T2, Nuclear receptor subfamily 2 group C member 1 (Homo sapiens); experiment: Selectivity interaction (Reporter gene assay) EUB0000585a NR2C1; parameters: recommended concentration 1 uM
[31] = molecular target: Nuclear receptor subfamily 2 group E member 1 (Homo sapiens) (UniProt Q9Y466); experiment: Selectivity interaction (Reporter gene assay) EUB0000585a NR2E1; parameters: recommended concentration 1 uM
[32] = molecular target: Nuclear receptor subfamily 4immunitygroup A member 1 (Homo sapiens) (UniProt P22736); experiment: Selectivity interaction (Reporter gene assay) EUB0000585a NR4A1; parameters: recommended concentration 1 uM
[33] = molecular target: Steroidogenic factor 1 (Homo sapiens) (UniProt Q13285); experiment: Selectivity interaction (Reporter gene assay) EUB0000585a NR5A1; parameters: recommended concentration 1 uM
[34] = molecular target: T3, Alpha trans-inducing protein (Human alphaherpesvirus 1); experiment: Selectivity interaction (Reporter gene assay) EUB0000585a UL48; parameters: recommended concentration 1 uM
[35] = molecular target: T4, Retinoic acid receptor RXR-alpha (Homo sapiens); experiment: Selectivity interaction (Reporter gene assay) EUB0000585a RXRA; parameters: recommended concentration 1 uM; details: reference bexarotene 1 uM, Selectivity number of off-targets 0.0, Selectivity number of targets 1.0, Source Knowledge inhouse

Sequence of Steroidogenic factor 1 (Homo sapiens) (Q13285 whole entry): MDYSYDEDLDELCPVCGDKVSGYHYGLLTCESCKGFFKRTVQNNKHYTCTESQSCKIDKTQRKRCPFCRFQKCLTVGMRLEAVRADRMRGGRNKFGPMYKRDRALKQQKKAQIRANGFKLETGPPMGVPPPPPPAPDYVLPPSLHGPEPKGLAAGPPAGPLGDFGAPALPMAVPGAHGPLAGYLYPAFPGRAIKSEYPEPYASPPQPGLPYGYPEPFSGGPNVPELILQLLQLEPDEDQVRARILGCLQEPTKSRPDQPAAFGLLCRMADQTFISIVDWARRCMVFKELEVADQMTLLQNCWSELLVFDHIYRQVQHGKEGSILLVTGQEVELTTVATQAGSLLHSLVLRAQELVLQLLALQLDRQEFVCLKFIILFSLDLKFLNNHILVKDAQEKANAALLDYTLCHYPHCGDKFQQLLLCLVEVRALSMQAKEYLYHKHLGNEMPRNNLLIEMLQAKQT
Sequence of Nuclear receptor subfamily 2 group E member 1 (Homo sapiens) (Q9Y466 whole entry): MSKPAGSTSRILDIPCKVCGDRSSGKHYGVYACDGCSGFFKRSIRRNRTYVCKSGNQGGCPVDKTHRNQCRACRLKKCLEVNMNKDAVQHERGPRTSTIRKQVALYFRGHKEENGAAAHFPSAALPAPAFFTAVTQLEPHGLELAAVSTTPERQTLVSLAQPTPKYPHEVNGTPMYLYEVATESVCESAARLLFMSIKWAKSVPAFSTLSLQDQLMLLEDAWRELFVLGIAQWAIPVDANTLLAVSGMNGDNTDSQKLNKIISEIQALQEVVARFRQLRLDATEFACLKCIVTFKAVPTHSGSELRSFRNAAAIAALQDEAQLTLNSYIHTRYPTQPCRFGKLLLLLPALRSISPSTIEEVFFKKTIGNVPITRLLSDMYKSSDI
T3 sequence (A0A5J6DW59 as listed by the source): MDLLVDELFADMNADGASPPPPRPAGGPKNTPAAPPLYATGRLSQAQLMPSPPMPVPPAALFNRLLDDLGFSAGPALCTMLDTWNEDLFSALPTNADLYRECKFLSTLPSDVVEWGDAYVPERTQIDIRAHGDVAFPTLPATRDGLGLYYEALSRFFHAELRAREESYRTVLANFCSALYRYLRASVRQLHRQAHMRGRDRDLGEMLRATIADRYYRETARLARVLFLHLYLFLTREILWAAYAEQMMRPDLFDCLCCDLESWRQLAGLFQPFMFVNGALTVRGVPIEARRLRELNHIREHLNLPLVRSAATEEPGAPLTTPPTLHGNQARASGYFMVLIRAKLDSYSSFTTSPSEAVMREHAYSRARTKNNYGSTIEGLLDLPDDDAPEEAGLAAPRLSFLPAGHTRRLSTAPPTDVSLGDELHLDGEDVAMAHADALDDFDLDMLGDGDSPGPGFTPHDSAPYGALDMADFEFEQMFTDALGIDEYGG
Sequence of Nuclear receptor subfamily 4immunitygroup A member 1 (Homo sapiens) (P22736 whole entry): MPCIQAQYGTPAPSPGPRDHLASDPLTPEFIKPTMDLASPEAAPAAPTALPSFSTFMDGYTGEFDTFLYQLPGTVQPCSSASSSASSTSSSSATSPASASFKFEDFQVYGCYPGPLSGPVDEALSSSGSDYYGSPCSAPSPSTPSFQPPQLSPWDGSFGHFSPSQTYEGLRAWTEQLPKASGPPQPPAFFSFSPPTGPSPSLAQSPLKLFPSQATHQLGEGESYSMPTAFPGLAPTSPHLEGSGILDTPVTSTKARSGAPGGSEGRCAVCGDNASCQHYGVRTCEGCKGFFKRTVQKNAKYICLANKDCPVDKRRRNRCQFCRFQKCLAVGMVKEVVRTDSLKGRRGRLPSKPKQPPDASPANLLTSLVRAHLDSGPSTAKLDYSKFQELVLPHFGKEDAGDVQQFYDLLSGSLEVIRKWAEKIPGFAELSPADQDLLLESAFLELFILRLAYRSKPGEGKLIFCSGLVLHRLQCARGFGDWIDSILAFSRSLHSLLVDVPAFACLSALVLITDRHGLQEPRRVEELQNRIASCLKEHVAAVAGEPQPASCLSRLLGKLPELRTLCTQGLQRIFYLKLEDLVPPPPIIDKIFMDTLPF

Structure (SMILES): CCOP(=O)(OCC)C(=Cc1cc(C(C)(C)C)c(O)c(C(C)(C)C)c1)P(=O)(OCC)OCC
Remaining activity [8]: 0.935
Fold activation [9]: 1.37
Remaining activity [10]: 0.795
Remaining activity [11]: 0.959
Fold activation [12]: 1.01
P-value [13]: 0.0136
Relative activation [14]: 0.581%

Structure (SMILES): CC(C)OC(=O)C1=CN(C(=O)c2ccc(F)c(F)c2)CC(C)(C)c2c1[nH]c1ccccc21
Fold activation [15]: 1.02
Fold activation [16]: 1.3
Fold activation [17]: 1.46
Fold activation [18]: 1.03
Fold activation [19]: 1.12
P-value [20]: 1.36e-05
Relative activation [21]: 0.671%

Structure (SMILES): Cc1cc(OCC(=O)O)cc(C)c1Cc1ccc(O)c(C(C)C)c1
Remaining activity [29]: 0.623
Remaining activity [30]: 0.638
Remaining activity [31]: 0.57
Remaining activity [32]: 0.496
Remaining activity [33]: 0.672
P-value [34]: 0.00063
Relative activation [35]: 0.666%

Next, values leading:

Remaining activity [1]: 0.993
Fold activation [2]: 1.19
Remaining activity [3]: 0.883
Remaining activity [4]: 0.837
Fold activation [5]: 1.08
P-value [6]: 0.000557
Relative activation [7]: 0.635%
Structure (SMILES): C=C1/C(=C\C=C2/CCC[C@]3(C)[C@@H]([C@H](C)/C=C/[C@H](C)C(C)C)CC[C@@H]23)C[C@@H](O)C[C@@H]1O

Fold activation [22]: 1.04
Fold activation [23]: 1.14
Fold activation [24]: 1.33
Fold activation [25]: 1.04
Remaining activity [26]: 0.952
P-value [27]: 0.000527
Relative activation [28]: 0.683%
Structure (SMILES): CO[C@H]1/C=C/O[C@@]2(C)Oc3c(C)c(O)c4c(O)c(c(/C=N/N5CCN(C)CC5)c(O)c4c3C2=O)NC(=O)/C(C)=C\C=C\[C@H](C)[C@H](O)[C@@H](C)[C@@H](O)[C@@H](C)[C@H](OC(C)=O)[C@@H]1C
